Assays:
[1] = target: T1, Adenylate cyclase type 1 (Homo sapiens, UniProt Q08828); experiment: Conversion of [32P] ATP to [32P]-cyclic AMP mediated by adenylate cyclase 1; type: functional; details: read-out: EC50
Target sequence in this assay (Q08828 whole entry): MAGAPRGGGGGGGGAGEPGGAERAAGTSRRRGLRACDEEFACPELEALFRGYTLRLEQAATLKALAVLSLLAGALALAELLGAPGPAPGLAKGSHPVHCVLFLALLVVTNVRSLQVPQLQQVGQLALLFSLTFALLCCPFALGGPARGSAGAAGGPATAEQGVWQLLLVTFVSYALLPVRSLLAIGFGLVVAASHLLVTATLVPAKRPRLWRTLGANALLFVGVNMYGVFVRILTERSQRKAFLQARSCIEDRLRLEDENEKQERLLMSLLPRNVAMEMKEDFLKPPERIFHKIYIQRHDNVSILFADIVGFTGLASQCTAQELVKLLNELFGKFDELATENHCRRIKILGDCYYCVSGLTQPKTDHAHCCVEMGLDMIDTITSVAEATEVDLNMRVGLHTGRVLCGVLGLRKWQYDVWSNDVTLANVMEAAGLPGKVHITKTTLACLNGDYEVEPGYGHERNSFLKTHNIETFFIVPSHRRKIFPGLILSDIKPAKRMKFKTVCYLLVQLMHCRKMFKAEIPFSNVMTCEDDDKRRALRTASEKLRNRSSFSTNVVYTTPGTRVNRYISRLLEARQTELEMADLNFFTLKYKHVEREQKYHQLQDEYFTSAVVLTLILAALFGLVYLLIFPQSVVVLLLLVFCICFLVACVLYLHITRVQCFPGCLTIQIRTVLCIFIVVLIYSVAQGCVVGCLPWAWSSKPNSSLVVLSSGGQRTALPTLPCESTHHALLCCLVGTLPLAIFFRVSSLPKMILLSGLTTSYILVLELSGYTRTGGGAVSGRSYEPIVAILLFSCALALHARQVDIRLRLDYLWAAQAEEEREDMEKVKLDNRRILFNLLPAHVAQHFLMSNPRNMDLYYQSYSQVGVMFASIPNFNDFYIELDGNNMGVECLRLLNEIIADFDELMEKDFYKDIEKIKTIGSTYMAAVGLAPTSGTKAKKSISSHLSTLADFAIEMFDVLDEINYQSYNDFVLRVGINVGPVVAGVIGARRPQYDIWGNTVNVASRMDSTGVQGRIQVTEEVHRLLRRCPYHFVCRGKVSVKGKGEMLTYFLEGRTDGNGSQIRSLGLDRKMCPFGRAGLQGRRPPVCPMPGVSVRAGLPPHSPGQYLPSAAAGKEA

[2] = target: T1, Adenylate cyclase type 1; experiment: (§1) Inhibition of [125 I]6-IHPP-forskolin binding to adenylate cyclase 1
Target sequence in this assay (Q08828 whole entry): as above

[3] = target: T1, Adenylate cyclase type 1; experiment: as §1; remark: listed apart in the source
Target sequence in this assay (Q08828 whole entry): as above

[4] = target: T1, Adenylate cyclase type 1; experiment: Maximum stimulation activity measured with 100 uM forskolin mediated by Adenylate cyclase 1; type: functional
Target sequence in this assay (Q08828 whole entry, looked up): as the sequence (Q08828 whole entry) above

[5] = target: T1, Adenylate cyclase type 1; experiment: Ability to activate the conversion of [32P] ATP to [32P]-cyclic AMP mediated by adenylate cyclase 1; type: functional
Target sequence in this assay (Q08828 whole entry): as above

[6] = target: T1, Adenylate cyclase type 1; experiment: Maximum stimulation activity measured with 100 uM forskolin mediated by adenylate cyclase 1; type: functional
Target sequence in this assay (Q08828 whole entry, looked up): as the sequence (Q08828 whole entry) above

[7] = target: T1, Adenylate cyclase type 1; experiment: (§2) Inhibition of [125 I]6-IHPP-forskolin binding to Adenylate cyclase 1; type: functional
Target sequence in this assay (Q08828 whole entry): as above

[8] = target: T1, Adenylate cyclase type 1; experiment: as §2
Target sequence in this assay (Q08828 whole entry): as above

[9] = target: Adenylate cyclase type 2 (Rattus norvegicus, UniProt P26769); experiment: Ability to activate the conversion of [32P] ATP to [32P]-cyclic AMP; type: functional
Adenylate cyclase type 2, sequence (P26769 whole entry): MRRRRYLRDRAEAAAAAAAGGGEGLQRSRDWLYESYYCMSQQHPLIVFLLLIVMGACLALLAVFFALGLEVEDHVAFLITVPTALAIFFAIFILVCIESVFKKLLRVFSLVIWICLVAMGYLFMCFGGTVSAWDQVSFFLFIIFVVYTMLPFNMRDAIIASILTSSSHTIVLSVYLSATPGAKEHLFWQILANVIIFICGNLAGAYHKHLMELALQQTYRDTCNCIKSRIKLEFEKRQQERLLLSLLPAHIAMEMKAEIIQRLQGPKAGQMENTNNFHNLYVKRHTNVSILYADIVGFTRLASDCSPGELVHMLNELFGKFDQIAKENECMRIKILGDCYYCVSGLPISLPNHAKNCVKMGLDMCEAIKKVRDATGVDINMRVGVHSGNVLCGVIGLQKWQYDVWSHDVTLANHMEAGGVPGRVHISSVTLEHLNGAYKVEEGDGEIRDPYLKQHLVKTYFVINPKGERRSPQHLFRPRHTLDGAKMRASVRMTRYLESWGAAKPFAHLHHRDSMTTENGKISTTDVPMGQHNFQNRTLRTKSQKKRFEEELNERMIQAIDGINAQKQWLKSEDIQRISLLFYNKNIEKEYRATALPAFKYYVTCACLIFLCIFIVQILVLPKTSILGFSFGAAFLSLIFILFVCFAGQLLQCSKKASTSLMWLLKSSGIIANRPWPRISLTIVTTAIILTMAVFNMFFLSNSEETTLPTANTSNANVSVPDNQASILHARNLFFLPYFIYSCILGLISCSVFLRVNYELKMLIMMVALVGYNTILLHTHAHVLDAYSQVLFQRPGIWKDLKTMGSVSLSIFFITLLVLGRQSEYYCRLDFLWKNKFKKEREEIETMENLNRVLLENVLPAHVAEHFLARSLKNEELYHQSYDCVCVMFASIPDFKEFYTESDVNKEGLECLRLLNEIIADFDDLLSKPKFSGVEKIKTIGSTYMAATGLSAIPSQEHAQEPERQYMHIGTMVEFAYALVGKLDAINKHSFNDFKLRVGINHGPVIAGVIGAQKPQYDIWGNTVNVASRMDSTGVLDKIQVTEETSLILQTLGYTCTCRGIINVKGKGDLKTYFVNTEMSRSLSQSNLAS

Row | SMILES | EC50 [1] [µM] | IC50 [2] [µM] | IC50 [3] [µM] | Activity [4] [%] | EC50 [5] [µM] | Activity [6] [%] | IC50 [7] [µM] | IC50 [8] [µM] | EC50 [9] [µM]
1 | C=C[C@@]1(C)CC(=O)[C@]2(O)[C@@]3(C)[C@@H](O)CCC(C)(C)[C@@H]3[C@H](OC(=O)NCCOC)[C@H](O)[C@@]2(C)O1 | 3.1 | > 0.15 | 0.318 | 84 | > 2 | – | – | – | –
2 | C=C[C@@]1(C)CC(=O)[C@]2(O)[C@@]3(C)[C@@H](O)CCC(C)(C)[C@@H]3[C@H](OC(=O)NCCC)[C@H](O)[C@@]2(C)O1 | 4.9 | – | 0.555 | – | > 2 | 61 | > 0.15 | – | –
3 | C=C[C@@]1(C)CC(=O)[C@]2(O)[C@@]3(C)[C@@H](O)CCC(C)(C)[C@@H]3[C@H](O)[C@H](OC(=O)NCCN3CCCCC3)[C@@]2(C)O1 | 1.2 | > 0.15 | 0.184 | 81 | < 2 | – | – | – | –
4 | C=C[C@@]1(C)CC(=O)[C@]2(O)[C@@]3(C)[C@@H](O)CCC(C)(C)[C@@H]3[C@H](OC(=O)NCCC(=O)OCC)[C@H](OC(C)=O)[C@@]2(C)O1 | 3.5 | < 0.15 | 0.044 | – | > 2 | 157 | – | – | –
5 | C=C[C@@]1(C)CC(=O)[C@]2(O)[C@@]3(C)[C@@H](O)CCC(C)(C)[C@@H]3[C@H](O)[C@H](OC(=O)NCCC(C)(C)C)[C@@]2(C)O1 | 9.6 | > 0.15 | 0.608 | – | > 2 | 58 | – | – | –
6 | C=C[C@@]1(C)CC(=O)[C@]2(O)[C@@]3(C)[C@@H](O)CCC(C)(C)[C@@H]3[C@H](O)[C@H](OC(=O)NCCO)[C@@]2(C)O1 | 1.4 | < 0.15 | 0.043 | 119 | < 2 | – | – | – | –
7 | C=C[C@@]1(C)CC(=O)[C@]2(O)[C@@]3(C)[C@@H](O)CCC(C)(C)[C@@H]3[C@H](OC(=O)NCCN3CCCCC3)[C@H](OC(C)=O)[C@@]2(C)O1 | 0.5 | < 0.15 | 0.082 | – | < 2 | 100 | – | – | –
8 | C=CCNC(=O)O[C@H]1[C@H]2C(C)(C)CC[C@H](O)[C@]2(C)[C@@]2(O)C(=O)C[C@](C)(C=C)O[C@]2(C)[C@H]1O | 3.5 | > 0.15 | 0.306 | – | > 2 | 94 | – | – | –
9 | C=C[C@@]1(C)CC(=O)[C@]2(O)[C@@]3(C)[C@@H](O)CCC(C)(C)[C@@H]3[C@H](OC(=O)NCCc3ccc(O)cc3)[C@H](O)[C@@]2(C)O1 | 0.63 | > 0.15 | 0.236 | – | < 2 | 86 | – | – | –
10 | C=C[C@@]1(C)CC(=O)[C@]2(O)[C@@]3(C)[C@@H](O)CCC(C)(C)[C@@H]3[C@H](O)[C@H](OC(=O)NCCN(C)C)[C@@]2(C)O1 | 2.2 | > 0.15 | 0.228 | 89 | > 2 | – | – | – | –
11 | C=C[C@@]1(C)CC(=O)[C@]2(O)[C@@]3(C)[C@@H](O)CCC(C)(C)[C@@H]3[C@H](OC(=O)NCC(C)C)[C@H](OC(C)=O)[C@@]2(C)O1 | 4.1 | > 0.15 | 0.167 | – | > 2 | 93 | – | – | –
12 | C=C[C@@]1(C)CC(=O)[C@]2(O)[C@@]3(C)[C@@H](O)CCC(C)(C)[C@@H]3[C@H](OC(=O)NCCOC)[C@H](OC(C)=O)[C@@]2(C)O1 | 0.7 | < 0.15 | 0.032 | – | < 2 | 71 | – | – | –
13 | C=C[C@@]1(C)CC(=O)[C@]2(O)[C@@]3(C)[C@@H](O)CCC(C)(C)[C@@H]3[C@H](OC(=O)NCCC(=O)OCC)[C@H](O)[C@@]2(C)O1 | 6.5 | > 0.15 | 0.171 | – | > 2 | 75 | – | – | –
14 | C=C[C@@]1(C)CC(=O)[C@]2(O)[C@@]3(C)[C@@H](O)CCC(C)(C)[C@@H]3[C@H](OC(=O)NCCN(C)C)[C@H](O)[C@@]2(C)O1 | 4.9 | > 0.15 | 0.247 | – | > 2 | 131 | – | – | –
15 | C=C[C@@]1(C)CC(=O)[C@]2(O)[C@@]3(C)[C@@H](O)CCC(C)(C)[C@@H]3[C@H](OC(=O)NCCC(C)(C)C)[C@H](O)[C@@]2(C)O1 | 2.1 | > 0.15 | 0.68 | – | > 2 | 63 | – | – | –
16 | C=C[C@@]1(C)CC(=O)[C@]2(O)[C@@]3(C)[C@@H](O)CCC(C)(C)[C@@H]3[C@H](O)[C@H](OC(=O)NCCc3ccc(N)cc3)[C@@]2(C)O1 | 1.1 | < 0.15 | 0.064 | 68 | < 2 | – | – | – | –
17 | C=C[C@@]1(C)CC(=O)[C@]2(O)[C@@]3(C)[C@@H](O)CCC(C)(C)[C@@H]3[C@H](OC(=O)NCC(C)C)[C@H](O)[C@@]2(C)O1 | 2.5 | > 0.15 | 0.593 | – | > 2 | 88 | – | – | –
18 | C=C[C@@]1(C)CC(=O)[C@]2(O)[C@@]3(C)[C@@H](O)CCC(C)(C)[C@@H]3[C@H](OC(=O)NCC3CCCCC3)[C@H](OC(C)=O)[C@@]2(C)O1 | 6.6 | > 0.15 | 0.117 | – | > 2 | 74 | – | – | –
19 | C=C[C@@]1(C)CC(=O)[C@]2(O)[C@@]3(C)[C@@H](O)CCC(C)(C)[C@@H]3[C@H](O)[C@H](OC(C)=O)[C@@]2(C)O1 [COLFORSIN] | 0.5 | – | 0.041 | – | – | 100 | – | < 0.15 | < 2

— ChEMBL document CHEMBL1129369, “Forskolin carbamates: binding and activation studies with type I adenylyl cyclase” (J Med Chem, 1996)
